Experiments:
Histone deacetylase = test: Inhibition of HDAC in human HeLa cells extracts after 60 mins by fluorescence assay; type: cell-based
A549 = test: Antiproliferative activity against human A549 cells after 48 hrs; type: functional, cell-based; details: A549, 48 h

| IC50 (Histone deacetylase) | IC50 (A549) | SMILES |
| --- | --- | --- |
| 0.01 µM | 6.1 µM | O=C(CCCCCCOc1ccc(-c2cc(=S)ss2)cc1)NO |
| 10 µM | 56 µM | O=C(CCCCCCC(=O)Oc1ccc(-c2cc(=S)ss2)cc1)NO |
| 918.7 µM | 60.2 µM | O=C(CCCCCCOc1ccc(-c2cc(=S)ss2)cc1)Nc1ccccc1 |
| 50 µM | > 1000 µM | O=C(CCCCOc1ccc(-c2cc(=S)ss2)cc1)Nc1ccccc1 |
| 100 µM | > 1000 µM | O=C(CCCCCCC(=O)Oc1ccc(-c2cc(=S)ss2)cc1)Nc1ccccc1 |
| 100 µM | 103 µM | O=C(O)c1ccc(-c2cssc2=S)cc1 |
| 82.85 µM | 880 µM | COc1cc(-c2cc(=S)ss2)ccc1OCC(=O)O |
| 1.19 µM | 1.68 µM | O=C(CCCCCCC(=O)Nc1ccccc1)NOC(=O)c1ccc(-c2cssc2=S)cc1 |
| 0.25 µM | 3.4 µM | O=C(CCCCCCC(=O)Nc1ccccc1)NOC(=O)c1csc(=S)s1 |
| 0.08 µM | 5.4 µM | O=C(CCCCOc1ccc(-c2cc(=S)ss2)cc1)NO |
| 32 µM | 31.7 µM | Nc1ccccc1NC(=O)CCCCCCOc1ccc(-c2cc(=S)ss2)cc1 |
| 46.4 µM | > 1000 µM | O=C(O)c1csc(=S)s1 [ACS 5] |

Reference: ChEMBL document CHEMBL1166012, “New aryldithiolethione derivatives as potent histone deacetylase inhibitors” (Bioorg Med Chem, 2010)
